Here are results for one compound from ChEMBL document CHEMBL1151440, “Safety and pharmacokinetics of GSK364735, a human immunodeficiency virus type 1 integrase inhibitor, following single and repeated administration in healthy adult subjects” (Antimicrob Agents Chemother, 2007).

Series [1] relates to Homo sapiens. Briefly: Toxicity in human assessed as adverse effect at 50 mg administered every 12 hrs for 8 days. It is filed as organism-based. Particulars: in vivo.
In series [2] the test system is Homo sapiens. Kind of series: Toxicity in human assessed as headache at 200 mg administered every 8 hrs for 8 days. The class given is organism-based. As to conditions: in vivo.
Series [3] concerns Homo sapiens. Briefly: Toxicity in human assessed as changes in 12-lead ECG at 50 to 400 mg after sequential repeated administration for 8 days. As to conditions: in vivo, 192 h. It is filed as organism-based.
Series [4] can be described thus: AUC (0 to infinity) in fasted human at 50 mg administered as single dose. It is filed as ADME, organism-based. More on the design: dose 50 mg, time infinity. Particulars: plasma.
The nature of series [5]: AUC (0 to infinity) in fasted human at 200 mg administered as single dose. The class given is ADME, organism-based. More on the design: dose 200 mg, time infinity. As to conditions: plasma.
Series [6] is described as follows: AUC (0 to infinity) in human at 200 mg administered with fat meal as single dose. The class given is ADME, organism-based. Further details: dose 200 mg, time infinity. As to conditions: plasma.
Series [7] can be described thus: Tmax in fasted human at 400 mg administered as single dose. It is filed as ADME, organism-based. Particulars: in vivo.
The nature of series [8]: Apparent oral clearance in human at 400 mg administered with fat meal as single dose. It is filed as ADME, organism-based. As to conditions: in vivo.

As for `Cn1c(=O)c(C(=O)NCCO)c(O)c2ncc(Cc3ccc(F)cc3)cc21` [GSK-364735], the figures for the Activity in the series on Homo sapiens [1], in the series on Homo sapiens [2] and in the series on Homo sapiens [3] were 25%, 13% and “Non-toxic”, respectively. In addition, the AUC(0-inf) in series [4] was 3.2 µg·h/mL; in series [5], 5.5 µg·h/mL; in series [6], 11 µg·h/mL. The Tmax in series [7] came out at 2.2 h. Moreover, the CL/F in series [8] was 783 mL/min.

By AUC(0-inf) is commonly meant total exposure, with the tail of the curve extrapolated. By Tmax is commonly meant the time at which the peak concentration occurs. The term CL/F denotes clearance divided by bioavailability, as obtained after extravascular dosing.
